pIC50: −log10 of the molar value.
Experiments:
[1] = tested on: Panel NCI-60 (60 carcinoma cell lines); assay: Cytotoxicity against human Panel NCI-60 (60 carcinoma cell lines) assessed as mean growth inhibition; type: functional
NCI-H226 = assay: Cytotoxicity against human NCI-H226 cells assessed as cell growth inhibition; type: functional, cell-based
SNB-75 = assay: Cytotoxicity against human SNB-75 cells assessed as cell growth inhibition; type: functional, cell-based
Hs-578T = assay: Cytotoxicity against human Hs-578T cells assessed as cell growth inhibition; type: functional, cell-based
NCI-H23 = assay: Cytotoxicity against human NCI-H23 cells assessed as cell growth inhibition; type: functional, cell-based
M14 = assay: Cytotoxicity against human M14 cells assessed as cell growth inhibition; type: functional, cell-based
SK-MEL-5 = assay: Cytotoxicity against human SK-MEL-5 cells assessed as cell growth inhibition; type: functional, cell-based
T47D = assay: Cytotoxicity against human T47D cells assessed as cell growth inhibition; type: functional, cell-based
NCI-H460 = assay: Cytotoxicity against human NCI-H460 cells assessed as cell growth inhibition; type: functional, cell-based
BT-549 = assay: Cytotoxicity against human BT-549 cells assessed as cell growth inhibition; type: functional, cell-based
OVCAR-4 = assay: Cytotoxicity against human OVCAR-4 cells assessed as cell growth inhibition; type: functional, cell-based
UO-31 = assay: Cytotoxicity against human UO-31 cells assessed as cell growth inhibition; type: functional, cell-based
MDA-MB-435 = assay: Cytotoxicity against human MDA-MB-435 cells assessed as cell growth inhibition; type: functional, cell-based
A498 = assay: Cytotoxicity against human A498 cells assessed as cell growth inhibition; type: functional, cell-based
HOP-92 = assay: Cytotoxicity against human HOP-92 cells assessed as cell growth inhibition; type: functional, cell-based
HCT-116 = assay: Cytotoxicity against human HCT-116 cells assessed as cell growth inhibition; type: functional, cell-based
K562 = assay: Cytotoxicity against human K562 cells assessed as cell growth inhibition; type: functional, cell-based
MCF7 = assay: Cytotoxicity against human MCF7 cells assessed as cell growth inhibition; type: functional, cell-based
SF-268 = assay: Cytotoxicity against human SF-268 cells assessed as cell growth inhibition; type: functional, cell-based
CAKI-1 = assay: Cytotoxicity against human CAKI-1 cells assessed as cell growth inhibition; type: functional, cell-based
PC-3 = assay: Cytotoxicity against human PC-3 cells assessed as cell growth inhibition; type: functional, cell-based
HOP-62 = assay: Cytotoxicity against human HOP-62 cells assessed as cell growth inhibition; type: functional, cell-based
SK-OV-3 = assay: Cytotoxicity against human SK-OV-3 cells assessed as cell growth inhibition; type: functional, cell-based
Malme-3M = assay: Cytotoxicity against human Malme-3M cells assessed as cell growth inhibition; type: functional, cell-based
786-0 = assay: Cytotoxicity against human 786-0 cells assessed as cell growth inhibition; type: functional, cell-based
OVCAR-3 = assay: Cytotoxicity against human OVCAR-3 cells assessed as cell growth inhibition; type: functional, cell-based
ACHN = assay: Cytotoxicity against human ACHN cells assessed as cell growth inhibition; type: functional, cell-based
HT-29 [2] = assay: Cytotoxicity against human HT-29 cells assessed as cell growth inhibition; type: functional, cell-based
TK-10 = assay: Cytotoxicity against human TK-10 cells assessed as cell growth inhibition; type: functional, cell-based
COLO 205 = assay: Cytotoxicity against human COLO 205 cells assessed as cell growth inhibition; type: functional, cell-based
UACC-257 = assay: Cytotoxicity against human UACC-257 cells assessed as cell growth inhibition; type: functional, cell-based
HL-60(TB) = assay: Cytotoxicity against human HL-60(TB) cells assessed as cell growth inhibition; type: functional, cell-based
SK-MEL-2 = assay: Cytotoxicity against human SK-MEL-2 cells assessed as cell growth inhibition; type: functional, cell-based
RXF 393 = assay: Cytotoxicity against human RXF 393 cells assessed as cell growth inhibition; type: functional, cell-based
CCRF-CEM = assay: Cytotoxicity against human CCRF-CEM cells assessed as cell growth inhibition; type: functional, cell-based
U-251 = assay: Cytotoxicity against human U-251 cells assessed as cell growth inhibition; type: functional, cell-based
KM12 = assay: Cytotoxicity against human KM12 cells assessed as cell growth inhibition; type: functional, cell-based
SW-620 = assay: Cytotoxicity against human SW620 cells assessed as cell growth inhibition; type: functional, cell-based
SK-MEL-28 = assay: Cytotoxicity against human SK-MEL-28 cells assessed as cell growth inhibition; type: functional, cell-based
NCI/ADR-RES = assay: Cytotoxicity against human NCI/ADR-RES cells assessed as cell growth inhibition; type: functional, cell-based
SNB-19 = assay: Cytotoxicity against human SNB-19 cells assessed as cell growth inhibition; type: functional, cell-based
HCT-15 = assay: Cytotoxicity against human HCT-15 cells assessed as cell growth inhibition; type: functional, cell-based
HCC 2998 = assay: Cytotoxicity against human HCC 2998 cells assessed as cell growth inhibition; type: functional, cell-based
DU-145 = assay: Cytotoxicity against human DU-145 cells assessed as cell growth inhibition; type: functional, cell-based
RPMI-8226 = assay: Cytotoxicity against human RPMI-8226 cells assessed as cell growth inhibition; type: functional, cell-based
SN12C = assay: Cytotoxicity against human SN12C cells assessed as cell growth inhibition; type: functional, cell-based
UACC-62 = assay: Cytotoxicity against human UACC-62 cells assessed as cell growth inhibition; type: functional, cell-based
A549 = assay: Cytotoxicity against human A549 cells assessed as cell growth inhibition; type: functional, cell-based
OVCAR-5 = assay: Cytotoxicity against human OVCAR-5 cells assessed as cell growth inhibition; type: functional, cell-based
NCI-H522 = assay: Cytotoxicity against human NCI-H522 cells assessed as cell growth inhibition; type: functional, cell-based
IGROV-1 = assay: Cytotoxicity against human IGROV-1 cells assessed as cell growth inhibition; type: functional, cell-based
OVCAR-8 = assay: Cytotoxicity against human OVCAR-8 cells assessed as cell growth inhibition; type: functional, cell-based
SF-539 = assay: Cytotoxicity against human SF-539 cells assessed as cell growth inhibition; type: functional, cell-based
MOLT-4 = assay: Cytotoxicity against human MOLT-4 cells assessed as cell growth inhibition; type: functional, cell-based
MDA-MB-231 = assay: Cytotoxicity against human MDA-MB-231 cells assessed as cell growth inhibition; type: functional, cell-based
[3] = Cytotoxicity against human F180 cells assessed as cell growth inhibition; type: toxicity, cell-based
[4] = Cytotoxicity against human hTERT-HME1 cells assessed as cell growth inhibition; type: toxicity, cell-based
HT-29 [5] = assay: Antiproliferative activity against human HT-29 cells assessed as reduction in cell viability; type: functional, cell-based

## O=C(Nc1ccc(NS(=O)(=O)c2ccccc2)cc1)C12CC3CC(CC(C3)C1)C2
[1]
  inhibition (INH): 97.88%

## O=c1[nH]cc(F)c(=O)[nH]1 [FLUOROURACIL]
NCI-H226
  pIC50: 4.26
SNB-75
  pIC50: 4.10
Hs-578T
  pIC50: 5.01
NCI-H23
  pIC50: 6.48
M14
  pIC50: 6.01
SK-MEL-5
  pIC50: 6.34
T47D
  pIC50: 5.09
NCI-H460
  pIC50: 7.30
BT-549
  pIC50: 4.97
OVCAR-4
  pIC50: 5.35
UO-31
  pIC50: 5.85
MDA-MB-435
  pIC50: 7.15
A498
  pIC50: 6.46
HOP-92
  pIC50: 4.11
HCT-116
  pIC50: 6.66
K562
  pIC50: 5.45
MCF7
  pIC50: 7.15
SF-268
  pIC50: 5.79
CAKI-1
  pIC50: 7.15
PC-3
  pIC50: 5.63
HOP-62
  pIC50: 6.41
SK-OV-3
  pIC50: 4.66
Malme-3M
  pIC50: 7.30
786-0
  pIC50: 6.14
OVCAR-3
  pIC50: 8.00
ACHN
  pIC50: 6.57
HT-29 [2]
  pIC50: 6.77
TK-10
  pIC50: 5.95
COLO 205
  pIC50: 6.82
UACC-257
  pIC50: 5.45
HL-60(TB)
  pIC50: 5.64
SK-MEL-2
  pIC50: 4.25
RXF 393
  pIC50: 5.58
CCRF-CEM
  pIC50: 5.00
U-251
  pIC50: 6.04
KM12
  pIC50: 6.68
SW-620
  pIC50: 6.04
SK-MEL-28
  pIC50: 5.99
NCI/ADR-RES
  pIC50: 6.51
SNB-19
  pIC50: 5.42
HCT-15
  pIC50: 6.96
HCC 2998
  pIC50: 7.30
DU-145
  pIC50: 6.44
RPMI-8226
  pIC50: 7.40
SN12C
  pIC50: 6.31
UACC-62
  pIC50: 6.28
A549
  pIC50: 6.74
OVCAR-5
  pIC50: 4.96
NCI-H522
  pIC50: 5.14
IGROV-1
  pIC50: 5.91
OVCAR-8
  pIC50: 5.76
SF-539
  pIC50: 7.22
MOLT-4
  pIC50: 6.46
MDA-MB-231
  pIC50: 5.18

## COc1cccc2c1C(=O)c1c(O)c3c(c(O)c1C2=O)C[C@@](O)(C(=O)CO)C[C@@H]3O[C@H]1C[C@H](N)[C@H](O)[C@H](C)O1 [DOXORUBICIN]
[3]
  pIC50: 6.85
[4]
  pIC50: 6.11

## O=C(n1ccc2cc(OS(=O)(=O)c3ccccc3)ccc21)C12CC3CC(CC(C3)C1)C2
[1]
  inhibition (INH): 88%

## O=C(n1ccc2cc(OS(=O)(=O)c3ccc(F)cc3)ccc21)C12CC3CC(CC(C3)C1)C2
[1]
  inhibition (INH): 86%

## O=C(Nc1ccc(OS(=O)(=O)c2ccc(F)cc2)cc1)C1CCCCC1
HT-29 [5]
  pIC50: 5.33

From ChEMBL document CHEMBL5331074, “Design and synthesis of new adamantyl derivatives as promising antiproliferative agents” (Eur J Med Chem, 2023)
